From patent US9481654B2, “Compositions and methods for inhibition of the JAK pathway” (Rigel Pharmaceuticals, Inc., priority 2006, dated 2016) come the findings set out here.

Assay [1] has as its system IL-4 stimulated CD23 upregulation in human Ramos B cells (JAK-1/JAK-3, Stat-6). Put plainly: Assay for Ramos B-Cell Line Stimulated with IL-4 (CD23 upregulation, FACS). The settings on record: Table III Example 3. The class given is cell-based. From the text:
One means of assaying for such inhibition is detection of the effect of the 2,4-pyrimidinediamine compounds on the upregulation of downstream gene products. In the Ramos/IL4 assay, B-cells are stimulated with the cytokine Interleukin-4 (IL-4) leading to the activation of the JAK/Stat pathway through phosphorylation of the JAK family kinases, JAK1 and JAK3, which in turn phosphorylate and activate the transcription factor Stat-6. […] To study the effect of inhibitors (e.g., the 2,4-substituted pyrimindinediamine compounds described herein) on the JAK1 and JAK3 kinases, human Ramos B cells are stimulated with human IL-4. 20 to 24 hours post stimulation, cells are stained for upregulation of CD23 and analyzed using flow cytometry (FACS).
B-cells stimulated with cytokine Interleukin-4 (IL-4) activate the JAK/Stat pathway through phosphorylation of the JAK family kinases, JAK-1 and JAK-3, which in turn phosphorylate and activate the transcription factor Stat-6. […] To study the effect of inhibitors on the JAK family kinases, human Ramos B cells are stimulated with human IL-4.
Cells were maintained at a density of 3.5×10^5. The day before the experiment, Ramos B-cells were diluted to 3.5×10^5 cells/mL to ensure that they were in a logarithmic growth phase.
Cells were spun down and suspended in RPMI with 5% serum. 5×10^4 cells were used per point in a 96-well tissue culture plate. Cells were pre-incubated with compound or DMSO (Sigma-Aldrich, St. Louis, Mo., Cat No. D2650) vehicle control for 1 hour in a 37° C. incubator. Cells were then stimulated with IL-4 (Peprotech Inc., Rocky Hill, N.J., Cat No. 200-04) for a final concentration of 50 units/mL for 20-24 hours. […] Detection was performed using a BD LSR I System Flow Cytometer, purchased from Becton Dickinson Biosciences of San Jose, Calif.

In assay [2] the test system is primary human T-cells (IL-2 induced proliferation, JAK-1/JAK-3, Stat-5). Put plainly: Primary Human T-Cell Proliferation Assay Stimulated with IL-2 (CellTiter-Glo). Format: cell-based. The settings on record: Table III Example 4. The procedure: In this assay, primary human T-cells derived from peripheral blood and pre-activated through stimulation of the T-cell receptor and CD28, proliferate in culture in response to the cytokine Interleukin-2 (IL-2). This proliferative response is dependent on the activation of JAK1 and JAK3 tyrosine kinases, which phosphorylate and activate the transcription factor Stat-5. The primary human T-cells are incubated with the 2,4-pyrimidinediamine compounds in the presence of IL-2 for 72 hours, and at the assay endpoint intracellular ATP concentrations are measured to assess cell viability. A reduction in cell proliferation compared to control conditions is indicative of inhibition of the JAK kinase pathway.
Primary human T-cells derived from peripheral blood and pre-activated through stimulation of the T-cell receptor and CD28 proliferate in vitro in response to the cytokine Interleukin-2 (IL-2). This proliferative response is dependent on the activation of JAK-1 and JAK-3 tyrosine kinases, which phosphorylate and activate the transcription factor Stat-5.
Human primary T cells were prepared as follows. […] The lymphocytes at the serum: ficoll interface were recovered and washed twice with 5 volumes of PBS. […] The primary T-cells were stimulated for 3 to 4 days, then transferred to a fresh flask and maintained in RPMI with 10% FBS and 40 U/mL IL-2.
Primary T-cells were washed twice with PBS to remove the IL-2 and resuspended in Yssel's medium at 2×10^6 cells/mL. 50 μL of cell suspension containing 80 U/mL IL-2 was added to each well of a flat bottom 96 well black plate. For the unstimulated control, IL-2 was omitted from the last column on the plate. […] 50 μL of 2× compound was added per well in duplicate and the cells were allowed to proliferate for 72 hours at 37° C.
Proliferation was measured using CellTiter-Glo® Luminescent Cell Viability Assay (Promega), which determines the number of viable cells in culture based on quantitation of the ATP present, as an indicator of metabolically active cells. The substrate was thawed and allowed to come to room temperature. After mixing the Cell Titer-Glo reagent and diluent together, 100 μL was added to each well. The plates were mixed on an orbital shaker for two minutes to induce lysis and incubated at room temperature for an additional ten minutes to allow the signal to equilibrate.
In general terms: In ATP-based viability assays light output follows the ATP content of the culture.

pIC50: −log10 of the molar value. Where a name gives a salt, the structure may show the parent alone.

Consider `C#CCNS(=O)(=O)Cc1cccc(Nc2nc(Nc3ccc(S(N)(=O)=O)cc3)ncc2F)c1` [Compound I-2, N2-(4-Aminosulfonylphenyl)-5-fluoro-N4-[3-(prop-2-ynylaminosulfonylmethyl)phenyl]-2,4-pyrimidinediamine], for which the negative-log IC50 (pIC50) in assay [1] (Homo sapiens, Ramos) is 6.19; in assay [2] (Homo sapiens, T-cell), 5.43.
For `C#CCNS(=O)(=O)Cc1ccc(Nc2nc(Nc3ccc(S(N)(=O)=O)cc3)ncc2F)cc1` [Compound I-6, N2-(4-Aminosulfonylphenyl)-5-fluoro-N4-[4-(prop-2-ynylaminosulfonylmethyl)phenyl]-2,4-pyrimidinediamine], in that order: 6.25 and 6.27.
On the same counts, the results for `C#CCNS(=O)(=O)c1cccc(Nc2ncc(F)c(Nc3ccc(CNS(=O)(=O)C4CC4)cc3)n2)c1` [Compound I-7, 5-Fluoro-N4-[4-(cyclopropylsulfonylaminomethyl)phenyl]-N2-[3-(prop-2-ynylaminosulfonyl)phenyl]-2,4-pyrimidinediamine] are 7.13 and 6.95.
For the molecule `CCS(=O)(=O)N[C@@H](C)c1ccc(Nc2nc(Nc3ccc(S(N)(=O)=O)cc3)ncc2F)cc1` [Compound I-26, N2-(4-aminosulfonyl)phenyl-N4-[4-(1S-ethylsulfonylamino)ethyl]phenyl-5-fluoro-2,4-pyrimidinediamine], the pIC50 was 6.60 in assay [1] and 5.94 in assay [2].
Regarding `CCS(=O)(=O)N[C@H](C)c1ccc(Nc2nc(Nc3ccc(S(N)(=O)=O)cc3)ncc2F)cc1` [Compound I-29, N2-(4-aminosulfonyl)phenyl-N4-[4-(1R-ethylsulfonylamino)ethyl]phenyl-5-fluoro-2,4-pyrimidinediamine], the pIC50 in assay [1] is 6.69; in assay [2] it was 6.05.
For `NS(=O)(=O)c1ccc(Nc2ncc(F)c(Nc3cccc(CNS(=O)(=O)C4CC4)c3)n2)cc1` [Compound I-32, N2-(4-aminosulfonyl)phenyl-N4-(3-cyclopropylsulfonylaminomethyl)phenyl-5-fluoro-2,4-pyrimidinediamine], the negative-log IC50 (pIC50) was 6.44 in assay [1] and 5.81 in assay [2].
Consider `NS(=O)(=O)c1ccc(Nc2ncc(F)c(Nc3ccc(CNS(=O)(=O)c4cccs4)cc3)n2)cc1` [Compound I-35, N2-(4-aminosulfonyl)phenyl-5-fluoro-N4-[4-(thiophen-2-yl)sulfonylaminomethyl]phenyl-2,4-pyrimidinediamine], for which the negative logarithm of the IC50 (pIC50) in assay [1] was 6.88; in assay [2] it was 6.36.
In the case of `Cc1nc(N)sc1S(=O)(=O)NCc1ccc(Nc2nc(Nc3cccc(S(N)(=O)=O)c3)ncc2F)cc1` [Compound I-41, N4-[4-(2-amino-4-methylthiazol-5-yl)sulfonylaminomethyl]phenyl-N2-(3-aminosulfonyl)phenyl-5-fluoro-2,4-pyrimidinediamine], the pIC50 in assay [1] was 5.99; in assay [2] it was 5.67.
With `CC(=O)Nc1nc(C)c(S(=O)(=O)NCc2ccc(Nc3nc(Nc4cccc(S(N)(=O)=O)c4)ncc3F)cc2)s1` [Compound I-42, N4-[4-(2-acetylamino-4-methylthiazol-5-yl)sulfonylaminomethyl]phenyl-N2-(3-aminosulfonyl)phenyl-5-fluoro-2,4-pyrimidinediamine], the negative-log IC50 (pIC50) in assay [1] is 5.94; in assay [2] it was 5.49.
On to `CC(=O)Nc1nc(C)c(S(=O)(=O)NCc2ccc(Nc3nc(Nc4ccc(C)c(S(N)(=O)=O)c4)ncc3F)cc2)s1` [Compound I-44, N4-[4-(2-acetylamino-4-methylthiazol-5-yl)sulfonylaminomethyl]phenyl-N2-(3-aminosulfonyl-4-methyl)phenyl-5-fluoro-2,4-pyrimidinediamine], for which the results for the pIC50 in assay [1] and in assay [2] were 5.91 and 5.38, respectively.
On to `CCS(=O)(=O)NCc1ccc(Nc2nc(Nc3ccc(S(N)(=O)=O)cc3)ncc2F)cc1Cl` [Compound I-74, N2-(4-aminosulfonyl)phenyl-N4-(3-chloro-4-ethylsulfonylaminomethyl)phenyl-5-fluoro-2,4-pyrimidinediamine], for which the negative logarithm of the IC50 (pIC50) in assay [1] is 6.44; in assay [2], 5.65.
`CCCC(=O)NS(=O)(=O)c1cccc(Nc2ncc(C)c(Nc3cccc(CN(C(=O)CCC)S(=O)(=O)C4CC4)c3)n2)c1` [Compound I-222, N2-(3-butyrylaminosulfonyl)phenyl-N4-[3-(N-butyryl-N-cyclopropylsulfonyl)aminomethyl]phenyl-5-methyl-2,4-pyrimidinediamine Choline salt] showed a pIC50 in assay [1] of 5.52.
The same measure, in the same setting: the result for `CCCC(=O)NS(=O)(=O)c1cccc(Nc2ncc(C)c(Nc3cccc(CNS(=O)(=O)C4CC4)c3)n2)c1` [Compound I-223, N2-(3-butyrylaminosulfonyl)phenyl-N4-(3-cyclopropylsulfonylaminomethyl)phenyl-5-methyl-2,4-pyrimidinediamine] reads 5.43; that for `CCCC(=O)N(Cc1cccc(Nc2nc(Nc3cccc(S(N)(=O)=O)c3)ncc2C)c1)S(=O)(=O)C1CC1` [Compound I-224, N2-(3-aminosulfonyl)phenyl-N4-[3-(N-butyryl-N-cyclopropylsulfonyl)aminomethyl]phenyl-5-methyl-2,4-pyrimidinediamine], 7.66; that for `CCCC(=O)N(COC(C)=O)S(=O)(=O)c1cccc(Nc2ncc(C)c(Nc3cccc(CNS(=O)(=O)C4CC4)c3)n2)c1` [Compound I-225, N2-[3-(N-acetoxymethyl-N-butyryl)aminosulfonyl]phenyl-N4-(3-cyclopropylsulfonylaminomethyl)phenyl-5-methyl-2,4-pyrimidinediamine], 6.94.
The same measure, in the same setting: the result for `CCC(=O)NS(=O)(=O)c1cccc(Nc2ncc(C)c(Nc3cccc(CN(C(=O)CC)S(=O)(=O)C4CC4)c3)n2)c1` [Compound I-226, N4-[3-(N-cyclopropylsulfonyl-N-propionyl)aminomethyl]phenyl-5-methyl-N2-(3-propionylaminosulfonyl)phenyl-2,4-pyrimidinediamine Choline salt] reads 5.26; that for `Cc1ccc(Nc2ncc(F)c(Nc3ccc4c(c3)CN(S(=O)(=O)C3CC3)C4)n2)cc1S(N)(=O)=O` [II-4, N2-(3-Aminosulfonyl-4-methylphenyl)-N4-[(2-cyclopropylsulfonyl)-isoindolin-5-yl]-5-fluoro-2,4-pyrimidinediamine], 6.14; that for `NS(=O)(=O)c1cccc(Nc2ncc(F)c(Nc3ccc4c(c3)CN(S(=O)(=O)C3CC3)C4)n2)c1` [II-5, N2-(3-Aminosulfonyl-phenyl)-N4-[(2-cyclopropylsulfonyl)-isoindolin-5-yl]-5-fluoro-2,4-pyrimidinediamine], 6.16.
Turning to `NS(=O)(=O)c1ccc(Nc2ncc(F)c(Nc3ccc4c(c3)CN(S(=O)(=O)C3CC3)C4)n2)cc1` [II-6, N2-(4-Aminosulfonyl-phenyl)-N4-[(2-cyclopropylsulfonyl)-isoindolin-5-yl]-5-fluoro-2,4-pyrimidinediamine], the negative-log IC50 (pIC50) in assay [1] is 6.19.
With “N4-[3-(N-cyclopropylsulfonyl-N-valeryl)aminomethyl]phenyl-5-methyl-N2-(3-valerylaminosulfonyl)phenyl-2,4-pyrimidinediamine sodium salt [Compound I-221]”, the pIC50 in assay [1] is 5.73. Compared with the last molecule, the pIC50 is 0.46 log units lower.
In assay [1], “N4-[4-(N-cyclopropylsulfonyl-N-propionyl)aminomethyl]phenyl-5-methyl-N2-(4-propionylaminosulfonyl)phenyl-2,4-pyrimidinediamine sodium salt [Compound I-78]” showed a pIC50 of 5.97.

As a reminder, the pIC50 is the IC50 on a negative log10 scale, so that one unit is a factor of ten. A low value points to a large IC50.
